Laboratory results as given in paper PMC8163091, “Production of novel pladienolide analogues through native expression of a pathway-specific activator” (Chemical Science, 2020).
Converted amounts (≈) assume the structure as drawn.

How the values were obtained:
Assay type in all cases: cell-based
[1] = test system: Staphylococcus aureus ATCC 25923; test: Antibacterial assay, S. aureus; conditions: ATCC25923, 28 °C, 48 h, read visually
Experimental: (§1) To ascertain the bioactivity of all compounds the inhibitory concentrations of 1–6 were measured against bacteria (Bacillus subtilis ATCC 6633 and Staphylococcus aureus ATCC 25923), yeasts (Candida albicans ATCC 10231 and Saccharomyces cerevisiae ATCC 9763), a protozoan (Tritrichomonas foetus), and mammalian cell lines (NS-1 mouse myeloma ATCC TIB-18 and NFF human neonatal foreskin fibroblast cells ATCC PCS-201). […] Given this selectivity, the IC50 values for each compound 1–5versus NS-1, NFF and DU145 human prostate cancer cell ATCC HTB-81 were ascertained by a resazurin-based assay (Table 2). […]
(§2) 1.7. Assays for Biological Activity
(§3) Purified metabolites (1 – 6) were dissolved in DMSO to provide stock solutions (1,000 µg/mL or 40 µg/mL). Bioassays were carried out in 96-well microtitre plates containing two-fold serial dilutions to yield ranges of 10 to 0.005 µg mL-1 or 0.4 to 0.0002 µg mL-1, in 1% DMSO. Wells containing no test compound as a reference for no inhibition, and uninoculated wells were used as a reference for complete […]
(§4) Antibacterial assays were carried out using Bacillus subtilis ATCC 6633 and Staphylococcus aureus ATCC 25923 as indicative species for Gram-positive activity. A bacterial suspension (50 mL in 250 mL flask) was prepared in nutrient broth media (5.0 g L-1 bacteriological peptone (Bacto), 5.0 g L-1 NaCl (Chem-supply), 2.0 g L-1 yeast extract (Bacto), 1.0 g L-1 beef extract (Bacto)) by cultivation for 24 h at 250 rpm, 28 °C. The suspension was diluted to an absorbance of 0.01 absorbance units per mL [OD400 nm] and aliquots (10 µL) were added to the wells of a 96 -well microtitre plate containing the test compounds dispersed in nutrient broth with resazurin (12.5 µg mL-1). The plates were incubated at 28 °C for 48 h, during which time the positive control wells change colour from a blue to light pink colour. MICs were determined visually. […]

[2] = test system: Candida albicans ATCC 10231; test: Antifungal assay, C. albicans; conditions: ATCC10231, 24 °C, 48 h, read visually
Experimental: as §1, §2
(§5) Purified metabolites (1 – 6) were dissolved in DMSO to provide stock solutions (1,000 µg/mL or 40 µg/mL). Bioassays were carried out in 96-well microtitre plates containing two-fold serial dilutions to yield ranges of 10 to 0.005 µg mL-1 or 0.4 to 0.0002 µg mL-1, in 1% DMSO. […]
(§6) Antifungal assays were carried out using Candida albicans ATCC 10231 and Saccharomyces cerevisiae ATCC 9763 as indicative species for antifungal activity. A yeast suspension (50 mL in 250 mL flask) was prepared in malt extract broth (1.0 g L-1 bacteriological peptone (Bacto), 20.0 g L-1 malt extract […]
(§7) (Bacto), 20 g L-1 glucose (Country Brewers)) by cultivation for 24 h at 250 rpm, 24 °C. The suspension was diluted to an absorbance of 0.005 and 0.03 absorbance units [ OD400] per mL for C. albicans and S. cerevisiae, respectively. Aliquots (20 µL and 30 µL) of C. albicans and S. cerevisiae, respectively were applied to the wells of a 96-well microtitre plate, which contained the test compounds dispersed in malt extract broth containing bromocresol green (50 µg mL-1). The plates were incubated at 24 °C for 48 h during which time the positive control wells change colour from a blue to yellow colour. MIC end points were determined visually. […]
(§8) To assay antitumour activity, NS -1 ATCC TIB-18 mouse myeloma , DU145 prostate cancer cells (ATCC HTB-81), and NFF (ATCC PCS -201) human neonatal foreskin fibroblast cells were each

[3] = test system: Bacillus subtilis ATCC 6633; test: Antibacterial assay, B. subtilis; conditions: ATCC6633, 28 °C, 48 h, read visually
Experimental: as §1, §2, §3, §4

[4] = test system: DU145 human prostate cancer cell ATCC HTB-81; test: Antitumour resazurin assay, DU145 prostate cancer cells; conditions: DU-145, 96 h, read-out: IC50 ± 95% confidence interval, DU145
Experimental: as §1, §2, §5
(§9) To assay antitumour activity, NS -1 ATCC TIB-18 mouse myeloma , DU145 prostate cancer cells (ATCC HTB-81), and NFF (ATCC PCS -201) human neonatal foreskin fibroblast cells were each inoculated in 96 -well microtitre plates (190 µL) at 50,000 cells mL-1 in DMEM (Dulbecco's Modified Eagle Medium + 10% v/v fetal bovine serum (FBS) + 1% v/v penicillin/streptomycin (10,000U mL-1/ 10,000 µg mL-1, Life Technologies Cat. No. 15140122), together with resazurin (250 µg/mL; 10 µL) and incubated at 37 °C (5% CO2). The plates were incubated for 96 h. Absorbance was measured using a Spectromax plate reader (Molecular Devices) at 605 nm for % inhibition, and IC50 values determined.

[5] = test system: NS-1 mouse myeloma ATCC TIB-18; test: Antitumour resazurin assay, NS-1 mouse myeloma cells; conditions: 96 h; for IC50: Mus musculus, read-out: IC50 ± 95% confidence interval, NS-1; for MIC, NS-1: NS-1 mouse myeloma ATCC TIB-18
Experimental: as §1, §2, §5, §9

[6] = test system: NFF human neonatal foreskin fibroblast cells ATCC PCS-201; test: Resazurin assay, NFF human neonatal foreskin fibroblast cells; conditions: for IC50: Homo sapiens, Fibroblast, read-out: IC50 ± 95% confidence interval, NFF; for IC50 / MIC, NFF: 96 h; for MIC, NFF: NFF human neonatal foreskin fibroblast ATCC PCS-201
Experimental: as §1, §2, §5, §9

[7] = test system: Saccharomyces cerevisiae ATCC 9763; test: Antifungal assay, S. cerevisiae; conditions: ATCC9763, 24 °C, 48 h, read visually
Experimental: as §1, §2, §5, §6, §7, §8

mammalian cell lines = test: Inhibitory activity against mammalian cell lines (summary across NS-1, DU145, NFF)
Experimental: To ascertain the bioactivity of all compounds the inhibitory concentrations of 1–6 were measured against bacteria (Bacillus subtilis ATCC 6633 and Staphylococcus aureus ATCC 25923), yeasts (Candida albicans ATCC 10231 and Saccharomyces cerevisiae ATCC 9763), a protozoan (Tritrichomonas foetus), and mammalian cell lines (NS-1 mouse myeloma ATCC TIB-18 and NFF human neonatal foreskin fibroblast cells ATCC PCS-201). […] Given this selectivity, the IC50 values for each compound 1–5versus NS-1, NFF and DU145 human prostate cancer cell ATCC HTB-81 were ascertained by a resazurin-based assay (Table 2).
as §7
Cat. No. 15140122), 10% v/v new born calf serum (NBCS), Life Technologies). […] T. foetus proliferation was measured at 72 h . […]

## CC[C@H](O)[C@@H](C)[C@H]1O[C@@H]1C[C@H](C)/C=C/C=C(\C)[C@H]1OC(=O)C[C@H](O)CC[C@@](C)(O)[C@@H](OC(C)=O)/C=C/[C@@H]1C [Compound 1, pladienolide B]
[1]
  MIC: > 10 µg/mL
[2]
  MIC: > 20 µg/mL
[3]
  MIC: > 10 µg/mL
[4]
  IC50: 7.5 ± 3.5 nM
[5]
  IC50: 5.6 ± 0.6 nM
  MIC, NS-1: 0.001 µg/mL (≈ 0.00186 µM)
[6]
  IC50: 13 ± 4.1 nM
  MIC, NFF: 0.013 µg/mL (≈ 0.0242 µM)
[7]
  MIC: > 20 µg/mL

## CC[C@H](O)[C@@H](C)[C@H]1O[C@@H]1C[C@H](C)/C=C/C=C(\C)[C@H]1OC(=O)C[C@H](O)CC[C@H](C)[C@@H](OC(C)=O)/C=C/[C@@H]1C [Compound 2, 6-deoxypladienolide B]
[1]
  MIC: > 10 µg/mL
[2]
  MIC: > 20 µg/mL
[3]
  MIC: > 10 µg/mL
Mammalian cell lines; depending on the cell line
  Fold less effective than 1: ≤ 8 fold
[4]
  IC50: 9.6 ± 5.8 nM
[5]
  IC50: 40.3 ± 3.7 nM
  MIC, NS-1: 0.001 µg/mL (≈ 0.00192 µM)
[6]
  IC50: 27 ± 14 nM
  MIC, NFF: 0.04 µg/mL (≈ 0.0768 µM)
[7]
  MIC: > 20 µg/mL

## CC[C@H](O)[C@@H](C)/C=C/C[C@H](C)/C=C/C=C(\C)[C@H]1OC(=O)C[C@H](O)CC[C@@](C)(O)[C@@H](OC(C)=O)/C=C/[C@@H]1C [Compound 3, Δ18,19-pladienolide B]
[1]
  MIC: > 10 µg/mL
[2]
  MIC: > 20 µg/mL
[3]
  MIC: > 10 µg/mL
Mammalian cell lines; across cell lines
  IC50 values, times greater than those of 1: up to twenty-five
[4]
  IC50: 96 ± 27 nM
[5]
  IC50: > 770 nM
  MIC, NS-1: 0.05 µg/mL (≈ 0.096 µM)
[6]
  IC50: 319 ± 61 nM
  MIC, NFF: 0.6 µg/mL (≈ 1.15 µM)
[7]
  MIC: > 20 µg/mL

## CC[C@H](O)[C@@H](C)/C=C/C[C@H](C)/C=C/C=C(\C)[C@H]1OC(=O)C[C@H](O)CC[C@H](C)[C@@H](OC(C)=O)/C=C/[C@@H]1C [Compound 4, Δ18,19-6-deoxypladienolide B]
[1]
  MIC: > 10 µg/mL
[2]
  MIC: > 20 µg/mL
[3]
  MIC: > 10 µg/mL
[4]
  IC50: 264 ± 79 nM
[5]
  IC50: > 790 nM
  MIC, NS-1: 0.1 µg/mL (≈ 0.198 µM)
[6]
  IC50: > 790 nM
  MIC, NFF: 0.4 µg/mL (≈ 0.793 µM)
[7]
  MIC: > 20 µg/mL

## CC[C@H](O)[C@@H](C)/C=C/C[C@H](C)/C=C/C=C(\C)[C@H]1OC(=O)C[C@H](O)CC[C@H](C)[C@@H](O)/C=C/[C@@H]1C [Compound 5, Δ18,19-6-deoxy-7-desacetylpladienolide B]
[1]
  MIC: > 10 µg/mL
[2]
  MIC: > 20 µg/mL
[3]
  MIC: > 10 µg/mL
[5]
  MIC, NS-1: 0.63 µg/mL (≈ 1.36 µM)
[6]
  IC50: 8100 ± 1800 nM
  MIC, NFF: 10 µg/mL (≈ 21.6 µM)
[6]; NFF
  Activity, times lower than 1 against NFF: > 600 times
[7]
  MIC: > 20 µg/mL

## CC[C@@H]1O[C@@H](C[C@H](C)/C=C/C=C(\C)[C@H]2OC(=O)C[C@H](O)CC[C@@](C)(O)[C@@H](OC(C)=O)/C=C/[C@@H]2C)[C@H](O)[C@@H]1C [Compound 6, isopladienolide B]
[1]
  MIC: > 10 µg/mL
[2]
  MIC: > 20 µg/mL
[3]
  MIC: > 10 µg/mL
[5]
  MIC, NS-1: 0.08 µg/mL (≈ 0.149 µM)
[6]
  MIC, NFF: 1.25 µg/mL (≈ 2.33 µM)
[7]
  MIC: > 20 µg/mL
